Assay results from patent publication US20250205268A1, “TREATMENT OF VIRUSES WITH ANTIVIRAL NUCLEOSIDES” (priority 2021, published 2025).

How the values were obtained:
SARS-CoV-2 RNA = test: Phase 2a trial: RT-PCR for SARS-CoV-2 RNA in nasopharyngeal swabs (Example 2); type: in vivo; conditions: 800 mg
[1] = type: in vivo, human; conditions: adults; age, sex, body size, food, mild-to-moderate renal or mild hepatic impairment
Description: A population pharmacokinetic (popPK) analysis for Compound A exposure was conducted using 4202 NHC plasma concentrations collected in 1207 individuals from a phase 1 study in healthy participants, a phase 2a study in non-hospitalized participants with COVID-19, a Phase 2 study in hospitalized participants with COVID-19, and a Phase 2/3 study in non-hospitalized participants with COVID-19. All studies were randomized, double-blind, placebo-controlled studies of safety, tolerability, and PK of Compound A after oral administration.

[2] = Part 2 interim, safety population

CC(C)C(=O)OC[C@H]1O[C@@H](n2ccc(NO)nc2=O)[C@H](O)[C@@H]1O [Compound A, {(2R,3S,4R,5R)-3,4-dihydroxy-5-[4-(hydroxyimino)-2-oxo-3,4-dihydropyrimidin-1 (2H)-yl]oxolan-2-yl}methyl 2-methylpropanoate]
Difference in least squares mean viral load change vs placebo (SARS-CoV-2 RNA; Day 14): −0.175 log10 copies/ml | Median time to clearance of viral RNA (SARS-CoV-2 RNA; participants seronegative at baseline (sensitivity analysis)): 14 days | AE: COVID-19 pneumonia (Part 2 interim): 4.9% | AE: bacterial pneumonia (Part 2 interim): 2.1% | AE: worsening COVID-19 (Part 2 interim): 8.0% | tolerability (Part 2 interim analysis): well-tolerated | Died [2]: (0.0) % | Estimated difference vs placebo: Died [2]: −2.6% | adverse event: Covid-19 pneumonia (final): 6.3% | adverse event: bacterial pneumonia (final): 2.0% | adverse event: worsening of Covid-19 (final): 7.9% | Death (final, safety population): 2 (0.3) number (percent) | Estimated Difference (95% CI) vs placebo: Death (final, safety population): −1.4 (−2.7 to −0.5) percentage points | AE: diarrhea (human, in vivo): 3.9% | AE: nausea (human, in vivo): 2.8% | AE: respiratory failure (human, in vivo): 1.0% | At least 1 serious AE (human, in vivo): (7.3) % | At least 1 serious drug-related AE (human, in vivo): (0.0) % | Discontinued the assigned regimen because of a serious adverse event (human, in vivo): 5 (0.7) number (percent) | Discontinued the assigned regimen because of a serious adverse event related to the assigned regimen (human, in vivo): 0 number (percent) | Discontinued the assigned regimen because of an adverse event (human, in vivo): 10 (1.4) number (percent) | Discontinued the assigned regimen because of an adverse event related to the assigned regimen (human, in vivo): 4 (0.6) number (percent) | Discontinued treatment due to a drug-related AE (human, in vivo): (0.8) % | Discontinued treatment due to a serious AE (human, in vivo): (0.3) % | Discontinued treatment due to a serious drug-related AE (human, in vivo): (0.0) % | Discontinued treatment due to an AE (human, in vivo): (1.3) % | Estimated Difference (95% CI) vs placebo: discontinued because of a serious adverse event (human, in vivo): −1.2 (−2.5 to 0.0) percentage points | Estimated Difference (95% CI) vs placebo: discontinued because of a serious adverse event related to the assigned regimen (human, in vivo): 0.0 (−0.5 to 0.5) percentage points | Estimated Difference (95% CI) vs placebo: discontinued because of an adverse event (human, in vivo): −1.4 (−3.1 to 0.1) percentage points | Estimated Difference (95% CI) vs placebo: discontinued because of an adverse event related to the assigned regimen (human, in vivo): 0.1 (−0.8 to 1.1) percentage points | Estimated Difference (95% CI) vs placebo: ≥1 Adverse event (human, in vivo): −2.5 (−7.4 to 2.3) percentage points | Estimated Difference (95% CI) vs placebo: ≥1 Adverse event related to the assigned regimen (human, in vivo): −0.4 (−3.3 to 2.5) percentage points | Estimated Difference (95% CI) vs placebo: ≥1 Serious adverse event (human, in vivo): −2.7 (−5.6 to 0.2) percentage points | Estimated Difference (95% CI) vs placebo: ≥1 Serious adverse event related to the assigned regimen (human, in vivo): −0.1 (−0.8 to 0.4) percentage points | Estimated difference vs placebo: At least 1 AE (human, in vivo): −4.6% | Estimated difference vs placebo: At least 1 drug-related AE (human, in vivo): 1.4% | Estimated difference vs placebo: At least 1 serious AE (human, in vivo): −6.7% | Estimated difference vs placebo: At least 1 serious drug-related AE (human, in vivo): 0.0% | Estimated difference vs placebo: Discontinued treatment due to a drug-related AE (human, in vivo): −0.0% | Estimated difference vs placebo: Discontinued treatment due to a serious AE (human, in vivo): −2.1% | Estimated difference vs placebo: Discontinued treatment due to a serious drug-related AE (human, in vivo): 0.0% | Estimated difference vs placebo: Discontinued treatment due to an AE (human, in vivo): −2.1% | adverse event related to the trial regimen: diarrhea (human, in vivo): 1.7% | adverse event related to the trial regimen: dizziness (human, in vivo): 1.0% | adverse event related to the trial regimen: nausea (human, in vivo): 1.4% | adverse event: diarrhea (human, in vivo): 2.3% | drug-related AE: diarrhea (human, in vivo): 3.1% | drug-related AE: nausea (human, in vivo): 2.3% | participants with adverse events considered related to the trial regimen (human, in vivo): 8.0% | ≥1 Adverse event (human, in vivo): 216 (30.4) number (percent) | ≥1 Adverse event related to the assigned regimen (human, in vivo): 57 (8.0) number (percent) | ≥1 Serious adverse event (human, in vivo): 49 (6.9) number (percent) | ≥1 Serious adverse event related to the assigned regimen (human, in vivo): 0 number (percent) | hematological laboratory tests (in vivo): no clinically significant abnormalities | liver parameters (in vivo): No clinically significant abnormalities in liver parameters | participants meeting prespecified criteria for platelets <50,000/μL or potential drug-induced liver injury (in vivo): No participants in the Compound A group met prespecified criteria | participants meeting prespecified criteria for postbaseline platelet count below 50,000 per microliter (in vivo): One participant | need for dose adjustment [1]: without dose adjustment | number of doses sufficient to demonstrate efficacy (H1N1; administered every 12 hours, ferret model of influenza): Three | dose demonstrating efficacy against H1N1 (H1N1; ferrets): 7 mg/kg BID | tolerability (SARS-CoV-2; 5-day course up to 800 mg twice daily): well tolerated | Median time to sustained recovery (SARS-CoV-2; all arms, hospitalized): 9 days | day 29 recovery rates (SARS-CoV-2; all arms, hospitalized): 81.5%-85.2% | hematologic toxicity based on prespecified adverse events (SARS-CoV-2; all doses): no evidence of hematologic toxicity | clinical benefit (SARS-CoV-2; hospitalized patients with COVID-19): clinical benefit was not observed | participants with undetectable SARS-CoV-2 RNA at day 10, more than placebo (SARS-CoV-2; participants with ≤5 days since sign/symptom onset): 14.3%-36.4%
